Common to all, as to type: biochemical
One assay deals with T1, GSK3-β (Homo sapiens, UniProt P49841).
T1 construct: His
In words: GSK3-β kinase assay. The following applies: ATP 30 μM; His-GSK3B 2.4 nM; Caliper LabChip 3000; read-out: GSK-3β IC50. How it is done:
(§1) The assays were performed in U-bottom 384-well plates. The final assay volume was 30 μl prepared from 15 μl additions of enzyme and substrates (fluoresceinated peptide FL-GSK substrate and ATP) and test compounds in assay buffer (100 mM HEPES pH 7.2, 10 mM MgCl2, 0.015% Brij35, 25 mM β-glycerolphosphate and 4 mM DTT). The reaction was initiated by the combination of GSK3-β with substrates and test compounds. The reaction was incubated at room temperature for 60 min. and terminated by adding 30 μl of 35 mM EDTA to each sample. The reaction mixture was analyzed on the Caliper LabChip 3000 (Caliper, Hopkinton, Mass.) by electrophoretic separation of the fluorescent substrate and phosphorylated product Inhibition data were calculated by comparison to no enzyme control reactions for 100% inhibition and vehicle-only reactions for 0% inhibition. The final concentration of reagents in the assays is ATP, 30 μM; FL-GSK substrate, 1.5 μM; His-GSK3B, 2.4 nM; and DMSO, 1.6%.

In the next assay the target is GST-Met (Homo sapiens, UniProt P08581). In words: Met Kinase Assay. The settings on record: 1 μM ATP; 33P γ-ATP, poly(Glu/Tyr); 1 h at 30° C. The method, then: Kinase reactions consisted of 0.75 ng of baculovirus expressed GST-Met, 3 ug poly(Glu/Tyr) (Sigma), 0.12 μCi 33P γ-ATP, 1 μM ATP in 30 μl kinase buffer (20 mm TRIS-C1, 5 mM MnCl2, 0.1 mg/ml BSA, 0.5 mM DTT). Reactions were incubated for 1 h at 30° C. and stopped by the addition of cold trichloroacetic acid (TCA) to a final concentration 8%. TCA precipitates were collected onto GF/C unifilter plates using a Filtermate universal harvester and the filters were quantitated using a TopCount 96-well liquid scintillation counter. Dose response curves were generated to determine the concentration required to inhibit 50% of kinase activity (IC50). Compounds were dissolved at 10 mM in dimethylsulfoxide (DMSO) and evaluated at seven concentrations, each in triplicate.

A further assay concerns the target CDK2E (Homo sapiens, UniProt P24941). In words: CDK 2/Cyclin E Kinase Assay. The following applies: ATP 30 μM; CDK2E 0.2 nM; Caliper LabChip 3000. The method, then: A. CDK 2/Cyclin E Kinase Assay
(§2) The assays were performed in U-bottom 384-well plates. The final assay volume was 30 μl prepared from 15 μl additions of enzyme and substrates (fluoresceinated CDK2E substrate peptide and ATP) and test compounds in assay buffer (100 mM HEPES pH 7.4, 10 mM MgCl2, 0.015% Brij35 and 4 mM DTT). The reaction was initiated by the combination of bacterially expressed, CDK2E with substrates and test compounds. The reaction was incubated at room temperature for 60 min. and terminated by adding 30 μl of 35 mM EDTA to each sample. The reaction mixture was analyzed on the Caliper LabChip 3000 by electrophoretic separation of the fluorescent substrate and phosphorylated product Inhibition data were calculated by comparison to no enzyme control reactions for 100% inhibition and vehicle-only reactions for 0% inhibition. The final concentration of reagents in the assays is ATP, 30 μM; FL-peptide, 1.5 μM; CDK2E, 0.2 nM; and DMSO, 1.6%. Dose response curves were generated to determine the concentration required inhibiting 50% of kinase activity (IC50). Compounds were dissolved at 10 mM in dimethylsulfoxide (DMSO) and evaluated at eleven concentrations, each in duplicate. IC50 values were derived by non-linear regression analysis.

The target of a further assay is T2, FLT3 (Homo sapiens, UniProt P36888).
T2 sequence (P36888 27-993): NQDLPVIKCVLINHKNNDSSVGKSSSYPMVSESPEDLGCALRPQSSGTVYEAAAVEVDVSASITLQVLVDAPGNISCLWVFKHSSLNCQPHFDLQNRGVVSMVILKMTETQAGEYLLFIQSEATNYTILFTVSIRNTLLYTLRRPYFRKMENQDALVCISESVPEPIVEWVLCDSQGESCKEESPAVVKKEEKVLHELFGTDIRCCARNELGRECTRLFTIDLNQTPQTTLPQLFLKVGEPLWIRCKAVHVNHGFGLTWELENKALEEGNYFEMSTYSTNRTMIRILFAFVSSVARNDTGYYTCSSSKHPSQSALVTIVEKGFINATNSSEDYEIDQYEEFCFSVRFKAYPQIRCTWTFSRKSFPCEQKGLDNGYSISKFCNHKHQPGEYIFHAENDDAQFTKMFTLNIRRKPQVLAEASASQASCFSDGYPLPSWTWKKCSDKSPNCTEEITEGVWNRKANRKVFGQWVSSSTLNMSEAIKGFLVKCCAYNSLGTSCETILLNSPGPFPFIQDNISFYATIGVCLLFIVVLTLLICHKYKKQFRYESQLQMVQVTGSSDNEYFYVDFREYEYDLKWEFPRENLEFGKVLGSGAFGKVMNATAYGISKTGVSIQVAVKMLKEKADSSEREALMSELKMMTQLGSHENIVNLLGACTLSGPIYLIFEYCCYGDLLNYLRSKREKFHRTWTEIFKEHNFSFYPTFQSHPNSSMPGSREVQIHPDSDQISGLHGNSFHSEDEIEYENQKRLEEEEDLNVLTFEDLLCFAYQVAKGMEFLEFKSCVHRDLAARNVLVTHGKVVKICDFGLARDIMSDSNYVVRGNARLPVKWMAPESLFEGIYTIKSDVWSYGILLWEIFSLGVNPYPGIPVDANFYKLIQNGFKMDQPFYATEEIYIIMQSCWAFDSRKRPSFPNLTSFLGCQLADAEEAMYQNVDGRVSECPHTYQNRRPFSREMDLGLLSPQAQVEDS
The assay is described as follows: FLT3 kinase assay. The following applies: ATP 200 μM; FLT3 4.5 nM; Caliper LabChip 3000. The method, then: as §2, with “FLT3” for “CDK2E”, “FLT3” for “bacterially expressed, CDK2E”, “product.” for “product”, “200 μM,” for “30 μM;”, “FLT3, 4.5 nM” for “CDK2E, 0.2 nM;”

For a further assay, the target named is IGF1-receptor (Homo sapiens, UniProt P08069). The assay is described as follows: IGF1-Receptor Tyrosine Kinase Assay. The settings on record: ATP 25 μM; IGF1-Receptor 14 nM; Caliper LabChip 3000; read-out: IGF1R IC50. The method, then: D. IGF1-Receptor Tyrosine Kinase Assay
The assays were performed in U-bottom 384-well plates. The final assay volume was 30 μl prepared from 15 μl additions of enzyme and substrates (fluoresceinated IGF1R substrate peptide and ATP) and test compounds in assay buffer (100 mM HEPES pH 7.4, 10 mM MnCl2, 0.015% Brij35 and 4 mM DTT). The reaction was initiated by the combination of IGF1-receptor with substrates and test compounds. The reaction was incubated at room temperature for 60 min. and terminated by adding 30 μl of 35 mM EDTA to each sample. The reaction mixture was analyzed on the Caliper LabChip 3000 by electrophoretic separation of the fluorescent substrate and phosphorylated product. Inhibition data were calculated by comparison to no enzyme control reactions for 100% inhibition and vehicle-only reactions for 0% inhibition. The final concentration of reagents in the assays is ATP, 25 μM; FL-peptide, 1.5 μM; IGF1-Receptor, 14 nM; and DMSO, 1.6%. Dose response curves were generated to determine the concentration required inhibiting 50% of kinase activity (IC50). Compounds were dissolved at 10 mM in dimethylsulfoxide (DMSO) and evaluated at eleven concentrations, each in duplicate. IC50 values were derived by non-linear regression analysis

Another assay has as its target JAK2 (Homo sapiens, UniProt O60674). The assay is described as follows: JAK2 kinase assay. The settings on record: ATP 30 μM; activated JAK2; Caliper LabChip 3000. How it is done:
as §1, with “FL-JAK2” for “FL-GSK”, “activated JAK2” for “GSK3-β”, “product.” for “product”, “FL-JAK2 peptide,” for “FL-GSK substrate,”, “[…], 2.6” for “His-GSK3B, 2.4”

Sequence of GST-Met (P08581 25-1390): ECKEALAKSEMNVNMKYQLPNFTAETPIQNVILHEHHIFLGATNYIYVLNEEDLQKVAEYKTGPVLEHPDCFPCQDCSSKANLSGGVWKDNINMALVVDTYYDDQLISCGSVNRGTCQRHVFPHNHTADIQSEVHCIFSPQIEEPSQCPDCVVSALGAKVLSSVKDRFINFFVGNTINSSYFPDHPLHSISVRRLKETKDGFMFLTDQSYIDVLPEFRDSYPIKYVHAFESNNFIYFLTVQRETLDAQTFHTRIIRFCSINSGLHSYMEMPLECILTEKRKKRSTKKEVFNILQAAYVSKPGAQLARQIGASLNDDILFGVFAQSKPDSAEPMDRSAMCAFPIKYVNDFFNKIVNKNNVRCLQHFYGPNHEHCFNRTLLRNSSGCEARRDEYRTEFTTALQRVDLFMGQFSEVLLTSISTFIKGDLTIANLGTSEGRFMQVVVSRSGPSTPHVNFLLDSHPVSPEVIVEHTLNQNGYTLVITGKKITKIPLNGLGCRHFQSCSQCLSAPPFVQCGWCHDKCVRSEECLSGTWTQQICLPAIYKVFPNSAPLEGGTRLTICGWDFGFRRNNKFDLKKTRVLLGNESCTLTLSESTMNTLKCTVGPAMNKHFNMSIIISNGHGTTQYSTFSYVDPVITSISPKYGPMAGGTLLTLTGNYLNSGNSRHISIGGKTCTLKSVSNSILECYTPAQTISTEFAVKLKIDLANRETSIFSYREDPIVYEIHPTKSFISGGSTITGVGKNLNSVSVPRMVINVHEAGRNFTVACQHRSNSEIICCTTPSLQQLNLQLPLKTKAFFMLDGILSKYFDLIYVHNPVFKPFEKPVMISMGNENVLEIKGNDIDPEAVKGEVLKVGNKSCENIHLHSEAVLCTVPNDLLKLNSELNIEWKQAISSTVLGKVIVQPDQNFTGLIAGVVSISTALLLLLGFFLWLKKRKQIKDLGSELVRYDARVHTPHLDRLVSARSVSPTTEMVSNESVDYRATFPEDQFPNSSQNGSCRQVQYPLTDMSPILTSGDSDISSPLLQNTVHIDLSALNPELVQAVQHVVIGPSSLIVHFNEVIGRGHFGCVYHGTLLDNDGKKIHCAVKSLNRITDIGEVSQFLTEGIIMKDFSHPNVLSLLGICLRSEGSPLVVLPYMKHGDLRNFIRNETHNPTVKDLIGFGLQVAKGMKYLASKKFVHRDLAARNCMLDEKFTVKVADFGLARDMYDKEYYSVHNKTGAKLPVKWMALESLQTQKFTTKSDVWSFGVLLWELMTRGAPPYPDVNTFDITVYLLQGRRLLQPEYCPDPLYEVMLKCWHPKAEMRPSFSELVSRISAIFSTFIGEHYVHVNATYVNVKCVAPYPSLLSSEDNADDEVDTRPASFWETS
T1 sequence (P49841 whole entry): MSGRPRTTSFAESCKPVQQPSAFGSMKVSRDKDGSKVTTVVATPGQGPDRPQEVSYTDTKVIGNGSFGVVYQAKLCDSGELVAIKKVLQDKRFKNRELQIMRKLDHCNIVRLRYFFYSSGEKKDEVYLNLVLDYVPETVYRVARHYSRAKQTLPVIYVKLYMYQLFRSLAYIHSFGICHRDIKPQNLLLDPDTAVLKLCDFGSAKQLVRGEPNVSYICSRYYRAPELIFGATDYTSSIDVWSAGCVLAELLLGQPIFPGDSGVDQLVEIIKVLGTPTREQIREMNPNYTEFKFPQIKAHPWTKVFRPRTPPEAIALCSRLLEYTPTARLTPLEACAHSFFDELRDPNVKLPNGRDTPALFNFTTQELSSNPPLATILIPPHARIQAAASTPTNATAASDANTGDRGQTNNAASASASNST
Sequence of IGF1-receptor (P08069 31-1367): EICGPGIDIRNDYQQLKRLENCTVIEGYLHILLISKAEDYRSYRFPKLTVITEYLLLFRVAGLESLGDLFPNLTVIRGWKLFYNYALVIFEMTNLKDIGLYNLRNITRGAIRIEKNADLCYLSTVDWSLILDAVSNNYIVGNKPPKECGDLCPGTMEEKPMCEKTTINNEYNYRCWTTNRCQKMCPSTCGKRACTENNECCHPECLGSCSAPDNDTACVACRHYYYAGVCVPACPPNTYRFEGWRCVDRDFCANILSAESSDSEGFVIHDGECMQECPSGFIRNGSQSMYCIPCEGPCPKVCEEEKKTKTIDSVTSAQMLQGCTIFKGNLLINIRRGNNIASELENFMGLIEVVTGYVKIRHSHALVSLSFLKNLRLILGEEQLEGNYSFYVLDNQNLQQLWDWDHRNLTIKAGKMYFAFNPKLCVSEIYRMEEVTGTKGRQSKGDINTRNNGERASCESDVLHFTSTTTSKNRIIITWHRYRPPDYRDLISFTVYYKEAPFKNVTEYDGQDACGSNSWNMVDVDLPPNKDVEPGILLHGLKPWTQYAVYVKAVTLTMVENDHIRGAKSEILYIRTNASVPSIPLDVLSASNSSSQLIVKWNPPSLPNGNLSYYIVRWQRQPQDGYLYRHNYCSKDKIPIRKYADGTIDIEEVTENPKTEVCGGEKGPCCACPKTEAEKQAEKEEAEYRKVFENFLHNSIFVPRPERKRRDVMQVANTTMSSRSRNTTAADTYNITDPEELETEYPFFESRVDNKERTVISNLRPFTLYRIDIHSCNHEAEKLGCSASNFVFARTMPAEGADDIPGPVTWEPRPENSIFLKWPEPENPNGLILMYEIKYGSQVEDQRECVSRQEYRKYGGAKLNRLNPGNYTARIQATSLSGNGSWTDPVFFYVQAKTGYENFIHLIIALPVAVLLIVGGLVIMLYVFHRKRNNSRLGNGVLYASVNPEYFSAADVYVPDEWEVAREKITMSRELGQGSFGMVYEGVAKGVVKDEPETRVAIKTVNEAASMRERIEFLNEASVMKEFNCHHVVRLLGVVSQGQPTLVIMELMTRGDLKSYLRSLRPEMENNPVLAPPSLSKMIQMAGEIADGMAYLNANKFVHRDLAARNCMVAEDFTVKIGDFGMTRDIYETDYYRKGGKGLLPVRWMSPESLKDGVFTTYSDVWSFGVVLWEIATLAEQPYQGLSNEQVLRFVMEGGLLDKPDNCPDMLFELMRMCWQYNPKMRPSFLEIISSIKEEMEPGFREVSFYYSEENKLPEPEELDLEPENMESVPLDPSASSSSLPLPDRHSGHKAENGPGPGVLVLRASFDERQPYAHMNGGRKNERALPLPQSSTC
Sequence of JAK2 (O60674 whole entry): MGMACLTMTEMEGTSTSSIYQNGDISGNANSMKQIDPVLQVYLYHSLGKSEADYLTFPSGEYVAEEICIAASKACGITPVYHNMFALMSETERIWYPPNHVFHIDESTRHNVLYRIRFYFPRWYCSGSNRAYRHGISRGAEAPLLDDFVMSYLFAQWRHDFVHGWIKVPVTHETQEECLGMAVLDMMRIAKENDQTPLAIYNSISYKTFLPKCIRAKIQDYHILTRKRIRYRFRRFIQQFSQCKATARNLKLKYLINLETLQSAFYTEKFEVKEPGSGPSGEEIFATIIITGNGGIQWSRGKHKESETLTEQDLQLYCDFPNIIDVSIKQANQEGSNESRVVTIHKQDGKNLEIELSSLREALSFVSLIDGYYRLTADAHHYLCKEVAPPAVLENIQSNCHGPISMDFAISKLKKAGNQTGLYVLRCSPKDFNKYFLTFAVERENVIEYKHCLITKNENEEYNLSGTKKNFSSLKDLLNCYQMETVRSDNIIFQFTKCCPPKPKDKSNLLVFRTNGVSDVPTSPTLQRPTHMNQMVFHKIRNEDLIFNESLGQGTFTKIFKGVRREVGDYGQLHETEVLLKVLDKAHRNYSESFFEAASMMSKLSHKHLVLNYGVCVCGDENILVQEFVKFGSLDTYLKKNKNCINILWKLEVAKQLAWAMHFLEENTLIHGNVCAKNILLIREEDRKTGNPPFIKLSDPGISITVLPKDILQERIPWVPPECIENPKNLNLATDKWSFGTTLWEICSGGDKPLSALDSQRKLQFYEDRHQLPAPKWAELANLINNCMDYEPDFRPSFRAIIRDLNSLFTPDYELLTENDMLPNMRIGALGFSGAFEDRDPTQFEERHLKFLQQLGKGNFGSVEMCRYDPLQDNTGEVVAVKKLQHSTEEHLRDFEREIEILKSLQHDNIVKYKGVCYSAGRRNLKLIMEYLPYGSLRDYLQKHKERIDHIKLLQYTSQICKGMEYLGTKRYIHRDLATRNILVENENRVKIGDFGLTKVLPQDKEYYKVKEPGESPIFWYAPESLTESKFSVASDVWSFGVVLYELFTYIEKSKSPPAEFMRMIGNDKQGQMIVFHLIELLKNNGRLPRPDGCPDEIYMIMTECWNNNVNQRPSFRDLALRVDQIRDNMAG

In general, IC50 refers to the concentration at which inhibition is half-maximal. On to `O=C(c1ccc(F)nc1)N1CCC[C@H]1c1nc(Nc2cc(C3CC3)[nH]n2)c2cccn2n1` [Example 1, (S)-(2-(4-(5-Cyclopropyl-1H-pyrazol-3-ylamino)pyrrolo[1,2-f][1,2,4]triazin-2-yl)pyrrolidin-1-yl)(6-fluoropyridin-3-yl)methanone], for which the IC50 is 290 nM at GSK3-β, 28 nM at GST-Met, 1870 nM at CDK2E and 29 nM at FLT3.
Regarding `O=C(c1nccs1)N1CCC[C@H]1c1nc(Nc2cc(C3CC3)[nH]n2)c2cccn2n1` [Example 2, (S)-(2-(4-(5-Cyclopropyl-1H-pyrazol-3-ylamino)pyrrolo[1,2-f][1,2,4]triazin-2-yl)pyrrolidin-1-yl)(thiazol-2-yl)methanone], the 50% inhibitory concentration (IC50) at IGF1-receptor was determined as 5 nM; at GSK3-β, 24 nM; at GST-Met, 170 nM; at CDK2E, 88 nM; on FLT3, 1 nM.
For the compound `CC(=O)N1CCC[C@H]1c1nc(Nc2cc(C3CC3)[nH]n2)c2cccn2n1` [Example 4, (S)-1-(2-(4-(5-Cyclopropyl-1H-pyrazol-3-ylamino)pyrrolo[1,2-f][1,2,4]-triazin-2-yl)pyrrolidin-1-yl)ethanone], the IC50 at IGF1-receptor came to 135 nM; on GSK3-β it was 20 nM; at GST-Met, 1780 nM; at CDK2E, 5 nM; on FLT3, 1 nM.
Take `CC(C)(C)OC(=O)N1CCC(C(=O)N2CCC[C@@H]2c2nc(Nc3cc(C4CC4)[nH]n3)c3cccn3n2)CC1` [Example 13, (R)-tert-Butyl 4-(2-(4-(5-cyclopropyl-1H-pyrazol-3-ylamino)pyrrolo[1,2-f][1,2,4]triazin-2-yl)pyrrolidine-1-carbonyl)piperidine-1-carboxylate]: the IC50 at JAK2 amounted to 22000 nM; at IGF1-receptor it was 314 nM; on GSK3-β it was 4450 nM; on CDK2E, 17400 nM; at FLT3, 308 nM.
